Marks after values point to notes of the source that are not given here. Blank lines part the entries; values can stand above or below the compound they belong to.
Assays:
[1] = Isomerization to the previtamin in the complexing with cyclodextrins (HPLC); assay type: physicochemical
Method: It is stirred for 2 hours at 22° C. and for 2 hours at 0° C. The solid is suctioned off and washed with 5 ml of cold water. After drying, 1.73 g (90% of theory) is obtained as a white solid. After HPLC (Stat. phase Chiracel JHRH 150×4.6 mm ID, detection 244 nm, eluant water/acetonitrile, flow: 1 ml/minute, gradient t0=70+30 v/v, linear increase of the gradient over 10 minutes t10 min to 60+40 v/v, isocratic t10 min-30 min 60+40 v/v), the solid, in addition to ergocalciferol (tRet.=26 minutes), contains 24% of the previtamin form (tRet.=23 minutes).
10 mg (0.024 mmol, MW 416.65) of calcitriol (dissolved in 100 μl of ethanol) is added in drops to the clear solution over 10 minutes. It is stirred for 2 hours at 22° C. and for 2 hours at 0-3° C., the solid is filtered off, and it is washed 2 times with 100 μl each of cold water. After drying at 20° C. and 0.5 mbar (24 hours), 26.6 mg of calcitriol-β-CD complex (71.5% of theory) is obtained. After the solid is dissolved in methanol and after an HPLC study (Stat. Phase Chiracel JHRH 150×4.6 mm ID, detection 244 nm, eluant water/acetonitrile, flow: 1 ml/minute, gradient t0=70+30 v/v, linear increase of the gradient over 10 minutes t10 min to 60+40 v/v, isocratic t10 min-30 min 60+40 v/v), the solid contains 23% of the previtamin form (tRet.=12 minutes) in addition to calcitriol (tRet.=17 minutes).
At 25° C., 100 mg (0.21 mmol) of (thiazol-2-yl)-26,27-dinor-9,10-secocholesta-5,7,10(19)-triene-1,3,25-triol (dissolved in 0.5 ml of ethanol) is added. It is stirred for 2 hours at room temperature, then for 2 hours at 0° C. The solid is filtered off, washed with 1 ml of cold water and dried. 290 mg (85% of theory) of solid is obtained. The content of the solid in the previtamin (compound 2) is 20% (HPLC, Stat. Phase Chiracel JHRH 150×4.6 mm ID, detection 244 nm, eluant water/acetonitrile, flow: 1 ml/minute, gradient to =70+30 v/v, linear increase of the gradient over 10 minutes t10 min to 60+40 v/v, isocratic t10 min-30 min 60+40 v/v, tRef. Compound 2: 11.65 minutes, tRef. Compound 1: 18.19 minutes). The sample preparation is carried out by dissolving the complex in 100% methanol.
For analytical study, the complexes can be dissolved in methanol or DMF and can be used in these solutions for the HPLC analysis (see 2.1). The content of the complexes that are obtained can be determined in comparison to the pure substance.

[2] = Cyclodextrin solubility in water; assay type: physicochemical
[3] = cited from earlier work
[4] = cited from earlier work; remark: listed apart in the source
[5] = Stability of the DIMEB complex from Example 3 a) 1 and the non-complexed active ingredient; assay type: physicochemical
Text: In Table 4 below, the stabilities of the DIMEB complex from Example 3 a) 1. and the non-complexed active ingredient are compiled: […]

[6] = Storage of compound 1 at room temperature; assay type: physicochemical; conditions: after four months at room temperature
[7] = Exp. 10: 15 d/40° C. aqueous, 80 μg of DIMEB complex per ml, compound 1 20 μg per ml
[8] = Exp. 11: 15 d/60° C. aqueous, 80 μg of DIMEB complex per ml, compound 1 20 μg per ml
[9] = Exp. 12: 15 d/80° C. aqueous, 80 μg of DIMEB complex per ml, compound 1 20 μg per ml
[10] = Exp. 13: 30 d/40° C. aqueous, 80 μg of DIMEB complex per ml, compound 1 20 μg per ml
[11] = Exp. 14: 30 d/60° C. aqueous, 80 μg of DIMEB complex per ml, compound 1 20 μg per ml

- % Previtamin (in Solution) ([1]; Table 1, without cyclodextrin): 0.2%
Structure (SMILES): C=C1CC[C@H](O)C/C1=C/C=C1\CCC[C@]2(C)[C@@H]([C@H](C)/C=C/[C@H](C)C(C)C)CC[C@@H]12 [Ergocalciferol, (5Z,7E,22E)-(3S)-9,10-secoergosta-5,7,10(19),22-tetraen-3-ol]
- previtamin formation / isomerization (in words) [1]: do not show any significant previtamin formation

Structure (SMILES): COC[C@H]1O[C@@H]2O[C@H]3[C@H](OC)[C@@H](OC)[C@@H](O[C@H]4[C@H](OC)[C@@H](OC)[C@@H](O[C@H]5[C@H](OC)[C@@H](OC)[C@@H](O[C@H]6[C@H](OC)[C@@H](OC)[C@@H](O[C@H]7[C@H](OC)[C@@H](OC)[C@@H](O[C@H]8[C@H](OC)[C@@H](OC)[C@@H](O[C@H]1[C@H](OC)[C@H]2OC)O[C@@H]8COC)O[C@@H]7COC)O[C@@H]6COC)O[C@@H]5COC)O[C@@H]4COC)O[C@@H]3COC [TRIMEB]
- CD-Water Solubility (g/100 ml), (25° C.) [2]: 200 g/100 ml

Structure (SMILES): OC[C@H]1O[C@@H]2O[C@H]3[C@H](O)[C@@H](O)[C@@H](O[C@H]4[C@H](O)[C@@H](O)[C@@H](O[C@H]5[C@H](O)[C@@H](O)[C@@H](O[C@H]6[C@H](O)[C@@H](O)[C@@H](O[C@H]7[C@H](O)[C@@H](O)[C@@H](O[C@H]8[C@H](O)[C@@H](O)[C@@H](O[C@H]9[C@H](O)[C@@H](O)[C@@H](O[C@H]1[C@H](O)[C@H]2O)O[C@@H]9CO)O[C@@H]8CO)O[C@@H]7CO)O[C@@H]6CO)O[C@@H]5CO)O[C@@H]4CO)O[C@@H]3CO [γ-Cyclodextrin, γ-cyclodextrin]
- Cyclodextrin Solubility in Water (20° C.) ([3]; 20° C., source Szejtly 1988): 23.3 g/100 ml

- CD-Water Solubility (g/100 ml), (25° C.) [2]: 25 g/100 ml
Structure (SMILES): COC[C@H]1O[C@@H]2O[C@H]3[C@H](O)[C@@H](OC)[C@@H](O[C@H]4[C@H](O)[C@@H](OC)[C@@H](O[C@H]5[C@H](O)[C@@H](OC)[C@@H](O[C@H]6[C@H](O)[C@@H](OC)[C@@H](O[C@H]7[C@H](O)[C@@H](OC)[C@@H](O[C@H]8[C@H](O)[C@@H](OC)[C@@H](O[C@H]1[C@H](O)[C@H]2OC)O[C@@H]8COC)O[C@@H]7COC)O[C@@H]6COC)O[C@@H]5COC)O[C@@H]4COC)O[C@@H]3COC [DIMEB, Heptakis-(2,6-di-O-methyl)-β-cyclodextrin]
- solubility of the DIMEB ([3]; Saenger et al. 2002, Uekama, Irie 1987): 60 g/100 ml of water
- solubility in water ([3]; at 20° C., Saenger et al. 2002): > 50 g/100 ml of water
- solubility in water while being heated ([3]; while being heated, Saenger et al. 2002): < 1 g/100 ml
- effects in intravenous administration [4]: hemolytic effects

- By-Products ([5]; Exp. 2: 30 d 40° C.): 3.08%
- Purity ([5]; Exp. 2: 30 d 40° C.): 96.08%
- By-Products ([5]; Exp. 3: 3 d/80° C./75% rel F.): 77.45%
- Purity ([5]; Exp. 3: 3 d/80° C./75% rel F.): 22.55%
- By-Products ([5]; Exp. 4: 7 d/80° C./75% rel F.): 95.34%
- Purity ([5]; Exp. 4: 7 d/80° C./75% rel F.): 4.66%
- By-Products ([5]; Exp. 5: 15 d/40° C./75% rel F.): 2.9%
- Purity ([5]; Exp. 5: 15 d/40° C./75% rel F.): 96.61%
- By-Products ([5]; Exp. 6: 15 d/60° C./75% rel F.): 2.96%
- Purity ([5]; Exp. 6: 15 d/60° C./75% rel F.): 96.34%
- By-Products ([5]; Exp. 7: 15 d/80° C./75% rel F.): 100%
- Purity ([5]; Exp. 7: 15 d/80° C./75% rel F.): 0%
- By-Products ([5]; Exp. 8: 30 d/40° C./75% rel F.): 3.00%
- Purity ([5]; Exp. 8: 30 d/40° C./75% rel F.): 96.7%
- By-Products ([5]; Exp. 9: 30 d/60° C./75% rel F.): 2.98%
- Purity ([5]; Exp. 9: 30 d/60° C./75% rel F.): 96.23%
- By-Products [5, 7]: 2.92** %
- Purity [5, 7]: 92.78%
- By-Products [5, 8]: 18.69** %
- Purity [5, 8]: 77.12%
- By-Products [5, 9]: 96.72** %
- Purity [5, 9]: 3.28%
- By-Products [5, 10]: 3.20** %
- Purity [5, 10]: 91.96%
- By-Products [5, 11]: 37.26** %
- Purity [5, 11]: 59.76%
- By-Products ([5]; Start): 3%
- Purity ([5]; Start): 96.12%
- % Previtamin (in Solution) ([1]; Table 2, compound 1 without CD): 0.2 (in %
- % Previtamin ([1]; Table 3, compound 1 without CD): 0.3%
- previtamin content [6]: about 2%
- content ([6]; in comparison to fresh samples or samples stored under inert conditions): 60%
Structure (SMILES): C=C1/C(=C\C=C2/CCC[C@]3(C)[C@@H]([C@H](C)CCC[C@H](O)c4nccs4)CC[C@@H]23)C[C@@H](O)C[C@@H]1O [Compound 1, (thiazol-2-yl)-26,27-dinor-9,10-secocholesta-5,7,10(19)-triene-1,3,25-triol]

- % Previtamin (in Solution) ([1]; Table 1, without cyclodextrin): 0.3%
Structure (SMILES): C=C1/C(=C\C=C2/CCC[C@]3(C)[C@@H]([C@H](C)CCCC(C)(C)O)CC[C@@H]23)C[C@@H](O)C[C@@H]1O [Calcitriol, (5Z,7E)-(1S,3R)-9,10-secocholesta-5,7,10(19)-triene-1,3,25-triol]
- previtamin formation / isomerization (in words) [1]: do not show any significant previtamin formation

Source: patent US20070093448A1, “Complexes that consist of vitamin D compounds or analogs thereof with a 5Z,7E,10(19)-triene system and methylated derivatives of beta-cyclodextrin” (priority 2005, published 2007)
